Results on three substances are retold here after US8796415B2, “Inhibitors of guanine exchange factors and their use as anticancer drugs” (Centre National de la Recherche Scientifique, priority 2009, dated 2014).

Ends that are not written are not given here.

The subject of one test is Dbl. Conditions: shown previously (Schmidt et al., 2002 and unpublished results); cited from earlier work.
Test [1] deals with T1, p63RhoGEF (Homo sapiens, UniProt Q86VW2).
T1 construct: GST-p63RhoGEF (DH domain) and GST-RhoG were purified as described previously; GST (N); made in house
Conditions: shown previously (Schmidt et al., 2002 and unpublished results); cited from earlier work.

The target of a further test is T2, p115RhoGEF (Homo sapiens, UniProt Q92888).
T2 construct: GST (N); made in house; host or cells: baculovirus system
T2 sequence (Q92888 1-912): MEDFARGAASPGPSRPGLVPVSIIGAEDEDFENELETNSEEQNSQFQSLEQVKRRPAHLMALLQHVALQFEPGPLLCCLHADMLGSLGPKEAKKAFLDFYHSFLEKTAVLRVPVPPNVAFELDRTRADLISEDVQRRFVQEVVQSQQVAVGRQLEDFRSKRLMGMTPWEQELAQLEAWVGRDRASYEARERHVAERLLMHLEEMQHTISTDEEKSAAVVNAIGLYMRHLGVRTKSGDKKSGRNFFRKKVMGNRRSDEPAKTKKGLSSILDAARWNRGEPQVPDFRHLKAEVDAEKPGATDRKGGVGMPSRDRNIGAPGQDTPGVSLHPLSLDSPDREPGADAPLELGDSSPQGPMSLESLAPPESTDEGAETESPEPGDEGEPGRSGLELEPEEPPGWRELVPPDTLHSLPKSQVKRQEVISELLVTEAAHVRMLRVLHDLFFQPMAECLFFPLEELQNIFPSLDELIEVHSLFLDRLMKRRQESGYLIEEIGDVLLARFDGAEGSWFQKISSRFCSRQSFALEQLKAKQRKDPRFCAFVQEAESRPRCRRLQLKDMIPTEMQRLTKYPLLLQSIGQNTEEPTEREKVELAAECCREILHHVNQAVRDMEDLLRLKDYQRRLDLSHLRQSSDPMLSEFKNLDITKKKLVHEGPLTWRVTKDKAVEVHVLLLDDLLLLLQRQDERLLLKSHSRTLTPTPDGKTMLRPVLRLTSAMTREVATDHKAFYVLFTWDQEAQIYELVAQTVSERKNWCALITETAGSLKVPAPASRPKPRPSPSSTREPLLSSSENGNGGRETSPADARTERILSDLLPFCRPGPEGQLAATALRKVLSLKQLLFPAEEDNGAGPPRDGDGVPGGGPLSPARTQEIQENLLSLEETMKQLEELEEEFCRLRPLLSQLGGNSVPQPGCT
The test is described as follows: mant-GTP fluorescence kinetics specificity assay, RhoA/p115RhoGEF. The format is biochemical. Conditions: peptide 20 μM, 0.5 μM GEF, 1 μM RhoA. On the procedure: (§1) Figures represent the comparison of TRIPE32G and TRIPT16M/L17S inhibition efficiency on different GTPase/RhoGEF systems, using 1 μM GTPase and 0.5 μM GEF as follows:
(§2) In each assay, the peptides were used at a concentration of 20 μM, corresponding to a 40 fold molar excess of inhibitor versus GEF. All fluorescence kinetics assays were performed using 1 μM mant-GTP. Results are expressed as Relative Fluorescence Units (RFU) versus time. The reaction performed in the absence of GEF reflects the spontaneous exchange activity of the GTPase.
(§3) Radioactive [3H]-GDP dissociation assays were performed as described (Schmidt et al., 2002). […] Inhibition efficiency is expressed as the ratio between [3H]-GDP-bound RhoA at 15 and 0 min. Apparent inhibition constants (Kiapp) of TRIP-like peptides were determined from kobs values obtained at increasing peptide concentrations using the above fluorescence nucleotide exchange assay. Kiapp was calculated from the hyperbolic fit of kobs values as a function of the inhibitor concentration as described (Zeeh et al., 2006). TRIP-like peptide specificity was assayed using mant-GTP fluorescence kinetics (λex=360 nm, λem=460 nm) in a FLX800 Microplate Fluorescence Reader (BioTek Instruments). […] The exchange reaction was initiated by addition of 1 μM RhoA or RhoG and monitored for 10 min.

Another test concerns the target T3, Lbc (Homo sapiens, UniProt Q12802).
T3 construct: GST-Dbl (DH-PH domain), GST-Lbc (DH-PH), GST-p63RhoGEF (DH domain) and GST-RhoG were purified as described previously; GST (N); made in house
T3 sequence (Q12802 1994-2333): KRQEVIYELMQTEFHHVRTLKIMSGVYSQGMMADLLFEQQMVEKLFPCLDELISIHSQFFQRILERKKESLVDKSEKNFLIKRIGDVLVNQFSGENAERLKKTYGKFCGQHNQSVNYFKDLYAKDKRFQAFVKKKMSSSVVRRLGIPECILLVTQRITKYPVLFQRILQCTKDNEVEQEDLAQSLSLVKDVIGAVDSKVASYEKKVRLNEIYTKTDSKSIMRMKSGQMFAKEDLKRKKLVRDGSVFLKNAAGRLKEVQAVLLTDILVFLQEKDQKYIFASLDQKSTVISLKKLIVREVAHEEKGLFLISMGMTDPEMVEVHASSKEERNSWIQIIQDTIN
The test is described as follows: mant-GTP fluorescence kinetics specificity assay, RhoA/Lbc. Type of test: biochemical. Conditions: peptide 20 μM, 0.5 μM GEF, 1 μM RhoA. On the procedure: as §1, §2, §3

The target in test [2] is T1, p63RhoGEF. The test is described as follows: mant-GTP fluorescence kinetics specificity assay, RhoA/p63RhoGEF. The format is biochemical. The conditions noted are these: peptide 20 μM, 0.5 μM GEF, 1 μM RhoA. On the procedure:
as §1, §2, §3

The target of a further test is T4, Trio DH1-PH1 (Homo sapiens, UniProt O75962).
T4 construct: Recombinant GST-Trio DH2-PH2, GST-Trio DH1-PH1, GST-Dbl (DH-PH domain); GST (N); made in house
Description: mant-GTP fluorescence kinetics specificity assay, RhoG/Trio DH1-PH1. Type of test: biochemical. Conditions: peptide 20 μM, 1 μM RhoG. On the procedure:
as §1, §2, §3

Test [3] relates to Tgat-mediated RhoA activation. The test is described as follows: RhoA activation assay (GST-RBD pull-down) in NIH3T3 cells stably expressing Tgat. Conditions: NIH3T3-Tgat cells transfected with GFP-tagged peptide. The format is cell-based. As for the experimental part:
The RhoA activation in NIH3T3-Tgat cells stably transfected with GFP, GFP-TRIPE32G or GFPTRIP T16M/L17S was assayed by the GST-RBD-pulldown assay as described in FIG. 2A.
The level of GTP-bound RhoA was measured by a GST pulldown assay as described (Schmidt et al., 2002). Briefly, cell lysates were incubated with glutathione beads coated with the recombinant Rho-binding domain (RBD) of the RhoA specific effector Rhotekin (Cytoskeleton Inc.).

T1 sequence (Q86VW2 160-336 limits assumed): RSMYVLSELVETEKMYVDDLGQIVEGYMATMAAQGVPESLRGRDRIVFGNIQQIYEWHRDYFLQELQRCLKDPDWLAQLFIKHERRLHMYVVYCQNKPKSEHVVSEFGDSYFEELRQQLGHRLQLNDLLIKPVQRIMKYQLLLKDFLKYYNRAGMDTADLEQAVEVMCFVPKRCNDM
Dbl, sequence (P10911 495-809 limits assumed): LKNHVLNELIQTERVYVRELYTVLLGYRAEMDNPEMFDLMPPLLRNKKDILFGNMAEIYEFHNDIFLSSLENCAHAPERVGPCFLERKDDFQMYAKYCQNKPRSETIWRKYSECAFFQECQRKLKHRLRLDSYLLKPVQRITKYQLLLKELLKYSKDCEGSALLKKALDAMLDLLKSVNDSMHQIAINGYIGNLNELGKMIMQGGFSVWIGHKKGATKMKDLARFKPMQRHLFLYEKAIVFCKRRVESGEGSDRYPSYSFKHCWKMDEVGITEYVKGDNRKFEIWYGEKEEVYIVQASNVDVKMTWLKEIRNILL

“AREGADGAICGYNLATLVMLGPSERVFCPLCEPCSSDIYELM [TRIPα]”: the “activity on Dbl” value with Dbl is given as “not active”. At p63RhoGEF [1], the “activity on p63RhoGEF” value was “not active”.
For “GST-TRIPE32G (AREGADGAICGYNLATLVMLGPSERVFCPLCGPCSSDIYELM; cysteine pairing not given here; also: GST fusion)”, the “effect on exchange activity of p115RhoGEF/RhoA” value with p115RhoGEF is given as “no effect”. For the same substance, the “effect on exchange activity of Lbc/RhoA” value with Lbc is “no effect”. Further, the “effect on exchange activity of p63RhoGEF/RhoA” value in the test with p63RhoGEF [2] is “no effect”. Also, in the test with Trio DH1-PH1, the “effect on exchange activity of Trio DH1-PH1/RhoG” value is recorded as “no effect”. Further, in test [3], the “inhibition of Tgat-mediated activation of RhoA in cells” value is recorded as “more efficient than TRIPT16M/L17S”.
Regarding GST-TRIPT16M/L17S, at p115RhoGEF, the “effect on exchange activity of p115RhoGEF/RhoA” value is on record as “no effect”. The “effect on exchange activity of Lbc/RhoA” value at Lbc is given as “no effect”. The “effect on exchange activity of p63RhoGEF/RhoA” value on p63RhoGEF [2] is given as “no effect”. Besides, the “effect on exchange activity of Trio DH1-PH1/RhoG” value at Trio DH1-PH1 is reported as “no effect”. Moreover, in test [3], the “inhibition of Tgat-mediated activation of RhoA in cells” value is “TRIPE32G was more efficient than TRIPT16M/L17S”.
